SMILES strings stand for the structures.

Format in all cases: cell-based
Test [1] deals with T1, adenosine receptor subtype A2b (Homo sapiens, UniProt P29275).
T1 construct: expressed in transfected cells; host or cells: CHO K1
T1 sequence (P29275 1-332): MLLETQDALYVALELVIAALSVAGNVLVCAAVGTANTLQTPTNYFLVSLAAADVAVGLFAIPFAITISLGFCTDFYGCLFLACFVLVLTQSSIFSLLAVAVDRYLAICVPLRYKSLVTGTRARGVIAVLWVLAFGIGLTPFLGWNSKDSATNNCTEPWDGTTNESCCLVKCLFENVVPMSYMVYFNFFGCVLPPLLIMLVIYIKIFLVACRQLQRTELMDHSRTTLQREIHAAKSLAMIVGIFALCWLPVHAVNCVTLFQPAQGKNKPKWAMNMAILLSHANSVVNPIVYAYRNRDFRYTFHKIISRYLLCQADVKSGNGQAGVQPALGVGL
Kind of test: Indirect determination of adenosine antagonism via gene expression (CRE luciferase), A2b cells. The note with it: table after B-5; CHO K1 A2b cells; agonist 30 nM NECA. An excerpt: (§1) B-5. Indirect Determination of Adenosine Antagonism Via Gene Expression
(§2) Cells of the permanent line CHO K1 (Chinese Hamster Ovary) are stably transfected with a reporter construct (CRE luciferase) and the cDNA for the adenosine receptor subtype A2a or A2b. A2a or A2b receptors are coupled via Gas proteins to the adenylate cyclase. Through receptor activation, the adenylate cyclase is activated and therefore the cAMP level in the cell increases. Via the reporter construct, a cAMP-dependent promoter, the change in the cAMP level is coupled to luciferase expression.
(§3) The permanent cell lines are cultured in DMEM/F12 (Cat.No. BE04-687Q; BioWhittaker) with 10% FCS (fetal calf serum) and various additives (20 ml/liter 1 M HEPES (Cat. No. 15630; Gibco), 20 ml/liter GlutaMAX (Cat. No. 35050-038, Gibco), 14 ml/liter MEM sodium pyruvate (Cat. No. 11360-039; Gibco) 10 ml/liter PenStrep (Cat. No. 15070-063; Gibco)) at 37° C. under 5% carbon dioxide, and split twice weekly.
(§4) For testing in the 384-well plate format, the cells are sown at 2000 cells/well in 25 μl/well sowing medium and cultured at 37° C. under 5% carbon dioxide until substance testing. […] The luciferase activity is detected with a luminescence reader. […]

The target in test [2] is T2, adenosine receptor subtype A2a (Homo sapiens, UniProt P29274).
T2 construct: expressed in transfected cells; host or cells: CHO K1
T2 sequence (P29274 whole entry): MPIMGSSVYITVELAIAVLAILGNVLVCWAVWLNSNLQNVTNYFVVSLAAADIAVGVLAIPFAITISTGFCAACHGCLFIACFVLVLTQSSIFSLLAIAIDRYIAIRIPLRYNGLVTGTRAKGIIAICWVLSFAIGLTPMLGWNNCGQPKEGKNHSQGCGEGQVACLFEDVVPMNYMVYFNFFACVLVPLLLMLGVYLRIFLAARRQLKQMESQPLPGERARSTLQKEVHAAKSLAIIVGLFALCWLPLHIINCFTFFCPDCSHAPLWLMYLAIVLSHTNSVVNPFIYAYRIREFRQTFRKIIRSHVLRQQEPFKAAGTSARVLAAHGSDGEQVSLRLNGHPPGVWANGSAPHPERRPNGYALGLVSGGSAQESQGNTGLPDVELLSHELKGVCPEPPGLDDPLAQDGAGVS
Kind of test: Indirect determination of adenosine antagonism via gene expression (CRE luciferase), A2a cells. The note with it: table after B-5; CHO K1 A2a cells; agonist 30 nM NECA.
Description: as §1, §2, §3, §4

For test [3], the target named is T3, adenosine receptor subtype A1 (A1-Gα 16 fusion construct) (Homo sapiens, UniProt P30542).
T3 construct: "an A1-Gα 16 fusion construct
T3 sequence (P30542 1-326): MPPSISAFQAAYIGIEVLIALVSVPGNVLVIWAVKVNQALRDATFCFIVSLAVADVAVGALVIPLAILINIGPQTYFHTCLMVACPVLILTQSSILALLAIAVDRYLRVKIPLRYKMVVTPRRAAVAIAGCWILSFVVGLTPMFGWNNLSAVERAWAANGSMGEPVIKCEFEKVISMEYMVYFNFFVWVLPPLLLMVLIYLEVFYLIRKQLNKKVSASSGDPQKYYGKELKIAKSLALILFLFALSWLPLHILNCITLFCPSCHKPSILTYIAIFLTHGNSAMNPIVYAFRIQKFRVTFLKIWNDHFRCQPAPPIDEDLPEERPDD
The test is described as follows: Indirect determination of adenosine antagonism via gene expression (NFAT luciferase), A1-Gα16 cells. The note with it: CHO K1 A1-Gα16 cells; agonist 25 nM CPA.
Description: as §1
For determination of adenosine antagonism on the adenosine receptor subtype A1, once again CHO K1 cells are stably transfected, but this time with a Ca^2+-sensitive reporter construct (NFAT-TA-Luc; Clontech) and an A1-Gα 16 fusion construct. This receptor chimera is, in contrast to the native A1 receptor (Gαi-coupling), coupled to the phospholipase C. The luciferase is expressed here as a function of the cytosolic Ca^2+concentration.
as §3
For testing in the 384-well plate format, the cells are sown at 2000 cells/well in 25 μl/well sowing medium and cultured at 37° C. under 5% carbon dioxide until substance testing. The A2a and A2b cells are sown, 24 h before substance testing, in medium with additives and 5% FCS, the base medium used for the A2a cells being DMEM/F12 and the base medium used for the A2b cells being OptiMEM (Cat. No. 31985-047; Gibco). […] The luciferase activity is detected with a luminescence reader. […]

As for `CNC(=O)c1cc(CSc2nc(N)c(C#N)c(-c3cc[nH]n3)c2C#N)ccn1` [Example 15], the figures for the EC50 in test [1] and in test [2] were 40 nM and ≥ 50000 nM, respectively. Moreover, the IC50 in test [3] is 0.5 nM.

Regarding `CNC(=O)c1cc(CSc2nc(NCCO)c(C#N)c(-c3cc[nH]n3)c2C#N)ccn1` [Example 29], a half-maximal effect in test [1] (EC50) was put at 267 nM. For the same compound, the IC50 in test [3] is 3.6 nM.

By EC50 is commonly meant the midpoint of the concentration-response curve. A high value points to weaker potency. By IC50 is commonly meant the concentration that gives 50% inhibition. Higher therefore signals weaker potency in that assay.
